Test results published in ChEMBL document CHEMBL1201862, “PubChem BioAssay data set” (2004).
The source made the active and inactive calls.

How the values were obtained:
CHO-K1 = assay: (§1) Counterscreen for antagonists of the orexin 1 receptor (OX1R; HCRTR1): Homogeneous time resolved fluorescence (HTRF)-based cell-based dose response assay to identify antagonists of the parental CHO-K1 cell line. [Related pubchem assays (depositor defined):AID434989, AID435008, AID463079, AID485270, AID492963, AID492964, AID492965, AID493232, AID504699, AID504701]; type: functional; details: Cricetulus griseus
Orexin receptor type 2 [1] = target: T1, Orexin receptor type 2 (Homo sapiens, UniProt O43614); assay: Counterscreen assay for antagonists of the orexin 1 receptor (OX1R; HCRTR1): Fluorescence-based cell-based dose response assay for antagonists of the orexin 2 receptor (OX2R; HCRTR2), run by assay provider.; type: functional
T1 sequence (O43614 whole entry): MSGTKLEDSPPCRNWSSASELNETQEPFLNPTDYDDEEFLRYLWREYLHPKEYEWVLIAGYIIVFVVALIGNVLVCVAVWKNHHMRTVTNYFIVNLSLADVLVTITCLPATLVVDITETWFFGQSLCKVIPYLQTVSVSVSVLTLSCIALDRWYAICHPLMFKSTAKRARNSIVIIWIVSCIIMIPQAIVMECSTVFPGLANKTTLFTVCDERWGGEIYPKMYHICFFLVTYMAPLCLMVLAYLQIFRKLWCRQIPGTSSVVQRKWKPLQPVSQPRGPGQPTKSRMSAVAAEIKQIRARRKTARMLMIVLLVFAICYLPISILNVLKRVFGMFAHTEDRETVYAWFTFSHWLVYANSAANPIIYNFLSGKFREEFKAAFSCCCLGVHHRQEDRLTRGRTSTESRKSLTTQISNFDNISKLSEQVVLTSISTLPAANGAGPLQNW

[2] = target: T2, Orexin/Hypocretin receptor type 1 (Homo sapiens, UniProt O43613); assay: (§2) Fluorescence-based cell-based high throughput dose response assay for antagonists of the orexin 1 receptor (OX1R; HCRTR1). [Related pubchem assays (depositor defined):AID434989, AID435008, AID463079, AID485270, AID492963, AID492964, AID492965, AID493232, AID504717, AID504718]; type: functional
T2 sequence (O43613 whole entry): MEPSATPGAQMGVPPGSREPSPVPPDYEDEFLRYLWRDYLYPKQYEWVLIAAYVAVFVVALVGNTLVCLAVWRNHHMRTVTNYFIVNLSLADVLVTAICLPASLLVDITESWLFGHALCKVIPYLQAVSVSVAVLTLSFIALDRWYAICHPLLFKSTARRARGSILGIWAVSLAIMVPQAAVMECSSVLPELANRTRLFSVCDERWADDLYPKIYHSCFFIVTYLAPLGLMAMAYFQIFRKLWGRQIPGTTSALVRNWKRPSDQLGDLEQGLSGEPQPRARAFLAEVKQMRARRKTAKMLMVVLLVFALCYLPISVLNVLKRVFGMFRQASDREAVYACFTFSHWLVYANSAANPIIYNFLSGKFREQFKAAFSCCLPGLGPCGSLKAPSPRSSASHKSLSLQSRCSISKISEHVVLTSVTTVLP

Orexin receptor type 2 [3] = target: T1, Orexin receptor type 2; assay: Counterscreen assay for antagonists of the orexin 1 receptor (OX1R; HCRTR1): Homogeneous Time Resolved Fluorescence (HTRF)-based cell-based dose response assay for antagonists of the orexin 2 receptor (OX2R; HCRTR2), run by assay provider.; type: functional
[4] = as §1, with “Fluorescence-based” for “Homogeneous time resolved fluorescence (HTRF)-based”, “cell-based high throughput” for “cell-based”, “CHO” for “CHO-K1”; type: functional
[5] = target: T2, Orexin/Hypocretin receptor type 1; assay: as §2, with “Homogeneous Time Resolved Fluorescence (HTRF)-based” for “Fluorescence-based”; type: functional
[6] = target: Ras and Rab interactor 1/Tyrosine-protein kinase ABL1 (Homo sapiens, UniProt P00519+Q13671); type: functional;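 note: biochemical TR-FRET dose-response test measuring inhibition of binding between Rin1 and Abl proteins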
Aurora kinase B = Aurora kinase B (Homo sapiens, UniProt Q96GD4); type: functional
Aurora kinase A = target: T3, Aurora kinase A (Homo sapiens, UniProt O14965); type: functional;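 note: value from the Navigating the Kinome kinase panel profiling, panel entry STK6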
T3 sequence (O14965 whole entry): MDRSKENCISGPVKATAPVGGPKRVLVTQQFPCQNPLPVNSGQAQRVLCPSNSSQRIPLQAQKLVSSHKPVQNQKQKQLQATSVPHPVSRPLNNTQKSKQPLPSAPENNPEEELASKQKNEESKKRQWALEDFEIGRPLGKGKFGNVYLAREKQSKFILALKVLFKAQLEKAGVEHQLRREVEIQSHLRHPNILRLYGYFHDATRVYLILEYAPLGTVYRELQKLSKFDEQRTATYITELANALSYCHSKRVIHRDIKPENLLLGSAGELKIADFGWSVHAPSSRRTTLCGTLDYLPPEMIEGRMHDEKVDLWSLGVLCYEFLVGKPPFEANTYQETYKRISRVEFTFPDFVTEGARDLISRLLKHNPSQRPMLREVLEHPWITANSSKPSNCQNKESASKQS

[7] = target: Heat shock protein HSP 90-alpha (Homo sapiens, UniProt P07900); type: functional, organism-based
[8] = viability of uninfected HEp-2 cells – cell-based, HTS, cytotoxicity control for RSV inhibitor project, dose response (AID 2410); type: functional; details: human respiratory syncytial virus
Cytochrome P450 3A4 = Cytochrome P450 3A4 (Homo sapiens, UniProt P08684);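 note: CYP3A4 tested as one member of a cytochrome P450 panel screen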
[9] = target: Luciferin 4-monooxygenase (Photinus pyralis, UniProt P08659); assay: inhibition of purified Photinus pyralis luciferase – biochemical, luminescence, dose response (AID 1891)
[10] = Luminescence Cell-Based Dose Confirmation HTS to Identify Inhibitors of Platelet Dense Granule Release. [Related pubchem assays: 1663 (Primary HTS), 1678 (Summary of Project)]; type: functional
Cytochrome P450 1A2 = target: T4, Cytochrome P450 1A2 (Homo sapiens, UniProt P05177);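 note: PubChem cytochrome P450 panel assay, CYP1A2 panel member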
T4 sequence (P05177 whole entry): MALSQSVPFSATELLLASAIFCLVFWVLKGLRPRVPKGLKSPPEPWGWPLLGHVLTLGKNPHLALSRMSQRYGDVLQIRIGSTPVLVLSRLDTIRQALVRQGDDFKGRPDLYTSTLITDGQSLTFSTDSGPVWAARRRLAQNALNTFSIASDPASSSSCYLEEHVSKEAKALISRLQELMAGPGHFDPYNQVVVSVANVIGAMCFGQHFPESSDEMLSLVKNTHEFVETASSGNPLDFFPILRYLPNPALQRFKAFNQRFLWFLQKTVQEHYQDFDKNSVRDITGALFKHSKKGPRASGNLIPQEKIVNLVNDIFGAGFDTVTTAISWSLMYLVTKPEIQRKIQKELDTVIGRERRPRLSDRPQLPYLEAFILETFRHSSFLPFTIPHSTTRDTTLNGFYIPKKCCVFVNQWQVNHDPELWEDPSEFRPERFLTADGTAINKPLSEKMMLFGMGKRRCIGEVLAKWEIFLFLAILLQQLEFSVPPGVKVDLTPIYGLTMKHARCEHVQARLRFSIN

Cytochrome P450 2C19 = Cytochrome P450 2C19 (Homo sapiens, UniProt P33261); assay: Cytochrome panel assay with activity outcomes. Panel member name: p450-cyp2c19 Compounds with AC50 equal or less than 10 uM are considered active; type: functional; details: read-out: AC50
Protein RecA = target: T5, Protein RecA (Mycobacterium tuberculosis, UniProt P9WHJ3); assay: Fluorescence Cell-Free Homogeneous Dose Retest to Identify Inhibitors of RecA-Intein Splicing Activity. [Related pubchem assays (depositor defined):AID2097, AID2223, AID489010, AID492950]; type: functional
T5 sequence (P9WHJ3 whole entry): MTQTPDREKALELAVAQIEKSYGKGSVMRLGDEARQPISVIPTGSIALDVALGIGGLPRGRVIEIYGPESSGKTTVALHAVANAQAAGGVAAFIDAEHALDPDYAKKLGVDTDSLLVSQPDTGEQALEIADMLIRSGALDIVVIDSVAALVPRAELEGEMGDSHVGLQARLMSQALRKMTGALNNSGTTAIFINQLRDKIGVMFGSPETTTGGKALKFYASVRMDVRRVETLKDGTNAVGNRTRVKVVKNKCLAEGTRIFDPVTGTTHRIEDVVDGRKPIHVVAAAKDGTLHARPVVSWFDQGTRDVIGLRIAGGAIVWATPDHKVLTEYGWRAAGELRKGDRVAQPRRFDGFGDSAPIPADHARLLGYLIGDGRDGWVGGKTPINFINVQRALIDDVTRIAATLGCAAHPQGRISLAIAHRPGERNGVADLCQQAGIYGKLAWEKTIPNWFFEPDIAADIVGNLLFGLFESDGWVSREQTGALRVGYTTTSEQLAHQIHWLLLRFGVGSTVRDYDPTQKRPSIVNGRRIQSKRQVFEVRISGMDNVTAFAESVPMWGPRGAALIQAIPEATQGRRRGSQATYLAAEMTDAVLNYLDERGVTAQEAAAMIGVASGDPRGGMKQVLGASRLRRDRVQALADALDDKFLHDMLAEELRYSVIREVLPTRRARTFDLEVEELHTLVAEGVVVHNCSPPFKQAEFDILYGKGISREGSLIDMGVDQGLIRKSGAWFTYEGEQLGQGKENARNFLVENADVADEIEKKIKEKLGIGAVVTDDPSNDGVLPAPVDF

Genome polyprotein = Genome polyprotein (dengue virus type 2, UniProt P29990); assay: flavivirus cap methylation enzyme inhibition – biochemical, confirmation dose response, primary screen (AID 588689); type: functional
[11] = target: T6, Replicative DNA helicase DnaB (Mycobacterium tuberculosis, UniProt P9WMR3); assay: DnaB intein splicing inhibitors, dose response, biochemical, cell-free fluorescence (AID 449749); type: functional
T6 sequence (P9WMR3 whole entry): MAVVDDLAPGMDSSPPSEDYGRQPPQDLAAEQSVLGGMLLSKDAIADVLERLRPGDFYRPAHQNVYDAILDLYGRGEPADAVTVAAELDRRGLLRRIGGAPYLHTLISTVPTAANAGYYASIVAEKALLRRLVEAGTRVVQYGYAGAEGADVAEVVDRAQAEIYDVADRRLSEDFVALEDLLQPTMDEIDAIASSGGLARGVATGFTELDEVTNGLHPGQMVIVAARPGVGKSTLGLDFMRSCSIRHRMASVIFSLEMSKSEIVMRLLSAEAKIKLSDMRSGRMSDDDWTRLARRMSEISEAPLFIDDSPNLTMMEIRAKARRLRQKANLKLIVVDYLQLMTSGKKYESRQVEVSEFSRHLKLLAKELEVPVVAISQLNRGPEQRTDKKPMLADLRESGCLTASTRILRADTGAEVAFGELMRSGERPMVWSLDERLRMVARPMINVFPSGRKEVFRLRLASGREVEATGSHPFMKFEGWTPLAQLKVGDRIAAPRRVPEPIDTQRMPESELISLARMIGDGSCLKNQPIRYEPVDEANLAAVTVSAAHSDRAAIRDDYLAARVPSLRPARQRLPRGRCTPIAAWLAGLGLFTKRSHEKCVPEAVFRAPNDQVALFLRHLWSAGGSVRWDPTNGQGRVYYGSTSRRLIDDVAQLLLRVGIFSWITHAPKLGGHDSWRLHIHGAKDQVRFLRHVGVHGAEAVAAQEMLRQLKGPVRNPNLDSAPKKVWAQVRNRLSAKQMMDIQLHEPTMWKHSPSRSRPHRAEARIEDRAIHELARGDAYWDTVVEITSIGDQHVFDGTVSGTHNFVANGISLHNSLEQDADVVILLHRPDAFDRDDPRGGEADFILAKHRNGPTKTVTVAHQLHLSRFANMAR

[12] = Trypanosoma cruzi growth suppression in host cells – NIH3T3 host cells, beta-gal luminescence, confirmation (AID 2044); type: functional, cell-based;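 note: intracellular parasites grown in NIH/3T3 mouse fibroblasts as host cells; luminescent beta-galactosidase reporter signal from transgenic T. cruzi replicating inside host cells; inhibitors lower the luminescence signal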
[13] = NIH3T3 cell viability loss – ATP luminescence, mouse fibroblasts, counter-screen, dose response (AID 2010); type: functional, cell-based;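 note: cells exposed to compound for about 90 hours before reading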
[14] = target: FAD-linked sulfhydryl oxidase ALR (Homo sapiens, UniProt P55789); assay: ALR-catalysed DTT oxidation blockers – biochemical, H2O2 detection, luminescence, cherry-pick, dose response (AID 493248)
Sequence of FAD-linked sulfhydryl oxidase ALR (P55789 whole entry): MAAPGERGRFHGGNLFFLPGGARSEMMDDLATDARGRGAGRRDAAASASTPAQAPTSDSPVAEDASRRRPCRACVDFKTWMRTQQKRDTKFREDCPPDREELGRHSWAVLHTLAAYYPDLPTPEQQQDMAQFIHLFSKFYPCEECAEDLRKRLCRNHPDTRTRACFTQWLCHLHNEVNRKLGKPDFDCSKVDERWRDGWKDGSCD

Sequence of Ras and Rab interactor 1/Tyrosine-protein kinase ABL1 (P00519 whole entry): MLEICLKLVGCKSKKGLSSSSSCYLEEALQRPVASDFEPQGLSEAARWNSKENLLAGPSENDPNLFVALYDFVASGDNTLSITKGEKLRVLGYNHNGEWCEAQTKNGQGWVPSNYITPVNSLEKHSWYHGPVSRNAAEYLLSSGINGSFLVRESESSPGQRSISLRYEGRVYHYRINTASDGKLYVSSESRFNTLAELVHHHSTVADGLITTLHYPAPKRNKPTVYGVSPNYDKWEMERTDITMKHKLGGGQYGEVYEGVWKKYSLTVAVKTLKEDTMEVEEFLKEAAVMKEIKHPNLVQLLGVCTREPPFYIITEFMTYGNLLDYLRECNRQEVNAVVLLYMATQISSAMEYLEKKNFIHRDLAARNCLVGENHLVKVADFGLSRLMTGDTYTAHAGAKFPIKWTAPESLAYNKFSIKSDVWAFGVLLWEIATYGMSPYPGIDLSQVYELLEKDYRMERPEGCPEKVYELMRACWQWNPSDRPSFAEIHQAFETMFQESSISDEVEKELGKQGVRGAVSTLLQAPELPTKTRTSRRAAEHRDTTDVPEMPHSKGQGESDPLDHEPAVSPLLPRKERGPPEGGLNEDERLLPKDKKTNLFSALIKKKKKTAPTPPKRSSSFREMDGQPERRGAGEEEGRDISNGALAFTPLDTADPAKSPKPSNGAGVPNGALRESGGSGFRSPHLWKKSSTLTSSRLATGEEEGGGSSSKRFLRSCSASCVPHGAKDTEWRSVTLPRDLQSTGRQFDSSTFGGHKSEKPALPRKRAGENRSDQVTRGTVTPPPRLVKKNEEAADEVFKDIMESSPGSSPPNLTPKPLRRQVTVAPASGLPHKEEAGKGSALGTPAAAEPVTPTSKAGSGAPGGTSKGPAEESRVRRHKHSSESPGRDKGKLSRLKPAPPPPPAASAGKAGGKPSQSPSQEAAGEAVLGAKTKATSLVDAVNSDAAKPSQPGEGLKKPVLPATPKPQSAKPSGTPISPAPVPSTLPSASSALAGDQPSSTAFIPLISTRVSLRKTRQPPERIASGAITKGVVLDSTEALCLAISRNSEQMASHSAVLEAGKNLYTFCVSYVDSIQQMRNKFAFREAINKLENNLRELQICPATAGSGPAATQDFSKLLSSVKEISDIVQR
Sequence of Ras and Rab interactor 1/Tyrosine-protein kinase ABL1 (Q13671 whole entry): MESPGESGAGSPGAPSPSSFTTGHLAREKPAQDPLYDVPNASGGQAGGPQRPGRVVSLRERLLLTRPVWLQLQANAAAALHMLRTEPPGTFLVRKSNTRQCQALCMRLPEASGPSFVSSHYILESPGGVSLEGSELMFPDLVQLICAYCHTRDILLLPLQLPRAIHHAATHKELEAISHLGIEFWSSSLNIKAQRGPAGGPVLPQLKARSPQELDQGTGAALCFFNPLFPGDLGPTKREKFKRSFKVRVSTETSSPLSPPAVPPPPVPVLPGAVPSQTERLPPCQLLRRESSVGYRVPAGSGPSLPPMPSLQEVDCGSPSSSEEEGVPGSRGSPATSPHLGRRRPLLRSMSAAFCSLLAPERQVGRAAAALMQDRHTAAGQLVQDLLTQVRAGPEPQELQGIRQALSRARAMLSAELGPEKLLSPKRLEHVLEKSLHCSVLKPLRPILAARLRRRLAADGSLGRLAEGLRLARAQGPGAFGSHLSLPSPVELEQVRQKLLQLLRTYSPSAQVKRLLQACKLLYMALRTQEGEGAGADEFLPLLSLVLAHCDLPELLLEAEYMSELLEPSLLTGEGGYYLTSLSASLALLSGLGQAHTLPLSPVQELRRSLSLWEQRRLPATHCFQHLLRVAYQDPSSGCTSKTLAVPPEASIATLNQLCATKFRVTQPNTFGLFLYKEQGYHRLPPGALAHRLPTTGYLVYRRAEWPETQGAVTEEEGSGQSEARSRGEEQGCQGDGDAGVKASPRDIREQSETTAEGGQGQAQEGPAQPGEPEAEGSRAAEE
Sequence of Genome polyprotein (P29990 2492-3391 limits assumed): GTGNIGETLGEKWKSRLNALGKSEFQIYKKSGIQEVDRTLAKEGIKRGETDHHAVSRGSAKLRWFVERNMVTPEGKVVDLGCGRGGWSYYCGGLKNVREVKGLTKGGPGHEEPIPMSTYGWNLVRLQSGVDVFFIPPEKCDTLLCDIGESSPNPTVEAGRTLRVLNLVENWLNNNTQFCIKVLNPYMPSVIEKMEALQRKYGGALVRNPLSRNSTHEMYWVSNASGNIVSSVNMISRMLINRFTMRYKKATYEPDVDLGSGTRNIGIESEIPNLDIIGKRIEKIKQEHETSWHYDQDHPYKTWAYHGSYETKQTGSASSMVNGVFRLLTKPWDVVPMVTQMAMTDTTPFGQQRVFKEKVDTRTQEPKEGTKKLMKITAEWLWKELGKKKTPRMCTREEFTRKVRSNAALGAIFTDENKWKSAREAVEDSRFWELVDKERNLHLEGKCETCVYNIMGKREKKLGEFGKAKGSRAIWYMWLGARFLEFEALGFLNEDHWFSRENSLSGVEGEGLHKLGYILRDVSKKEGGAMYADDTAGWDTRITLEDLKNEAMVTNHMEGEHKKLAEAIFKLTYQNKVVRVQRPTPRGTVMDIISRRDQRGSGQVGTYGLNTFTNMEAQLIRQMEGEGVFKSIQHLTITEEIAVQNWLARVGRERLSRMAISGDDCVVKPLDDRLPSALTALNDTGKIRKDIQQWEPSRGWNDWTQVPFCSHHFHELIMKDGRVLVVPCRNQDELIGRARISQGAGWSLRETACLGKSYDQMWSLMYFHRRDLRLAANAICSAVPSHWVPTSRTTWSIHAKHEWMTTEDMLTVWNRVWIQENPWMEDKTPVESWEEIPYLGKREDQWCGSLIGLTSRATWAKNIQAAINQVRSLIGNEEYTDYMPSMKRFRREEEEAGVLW
Sequence of Luciferin 4-monooxygenase (P08659 whole entry): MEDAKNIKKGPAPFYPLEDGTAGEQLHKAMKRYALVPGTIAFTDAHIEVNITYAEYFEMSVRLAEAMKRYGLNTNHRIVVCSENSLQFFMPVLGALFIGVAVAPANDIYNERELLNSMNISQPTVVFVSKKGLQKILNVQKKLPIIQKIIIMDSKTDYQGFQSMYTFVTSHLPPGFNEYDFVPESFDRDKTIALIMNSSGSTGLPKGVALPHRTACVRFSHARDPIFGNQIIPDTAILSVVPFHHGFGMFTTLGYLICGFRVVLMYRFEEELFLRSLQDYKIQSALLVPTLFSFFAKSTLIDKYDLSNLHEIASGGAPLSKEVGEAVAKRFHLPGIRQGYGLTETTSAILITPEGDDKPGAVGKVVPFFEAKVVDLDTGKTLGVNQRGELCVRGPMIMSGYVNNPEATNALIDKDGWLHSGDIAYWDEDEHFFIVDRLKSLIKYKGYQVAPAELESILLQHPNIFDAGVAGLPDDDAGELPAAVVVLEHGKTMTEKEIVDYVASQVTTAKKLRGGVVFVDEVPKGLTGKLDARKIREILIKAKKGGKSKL
Sequence of Cytochrome P450 3A4 (P08684 whole entry): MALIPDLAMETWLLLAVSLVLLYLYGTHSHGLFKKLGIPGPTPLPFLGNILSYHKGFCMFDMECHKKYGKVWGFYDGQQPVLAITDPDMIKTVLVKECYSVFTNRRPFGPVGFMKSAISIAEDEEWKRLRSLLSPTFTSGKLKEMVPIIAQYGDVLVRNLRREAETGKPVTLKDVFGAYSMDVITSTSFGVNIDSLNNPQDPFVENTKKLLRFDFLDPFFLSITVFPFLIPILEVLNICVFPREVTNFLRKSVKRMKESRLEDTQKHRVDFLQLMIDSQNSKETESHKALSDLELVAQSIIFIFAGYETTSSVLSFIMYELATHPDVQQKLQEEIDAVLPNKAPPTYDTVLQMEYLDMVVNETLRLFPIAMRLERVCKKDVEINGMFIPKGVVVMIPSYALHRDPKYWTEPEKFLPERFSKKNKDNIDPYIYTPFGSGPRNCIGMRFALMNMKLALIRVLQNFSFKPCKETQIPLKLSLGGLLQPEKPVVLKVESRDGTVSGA
Sequence of Cytochrome P450 2C19 (P33261 whole entry): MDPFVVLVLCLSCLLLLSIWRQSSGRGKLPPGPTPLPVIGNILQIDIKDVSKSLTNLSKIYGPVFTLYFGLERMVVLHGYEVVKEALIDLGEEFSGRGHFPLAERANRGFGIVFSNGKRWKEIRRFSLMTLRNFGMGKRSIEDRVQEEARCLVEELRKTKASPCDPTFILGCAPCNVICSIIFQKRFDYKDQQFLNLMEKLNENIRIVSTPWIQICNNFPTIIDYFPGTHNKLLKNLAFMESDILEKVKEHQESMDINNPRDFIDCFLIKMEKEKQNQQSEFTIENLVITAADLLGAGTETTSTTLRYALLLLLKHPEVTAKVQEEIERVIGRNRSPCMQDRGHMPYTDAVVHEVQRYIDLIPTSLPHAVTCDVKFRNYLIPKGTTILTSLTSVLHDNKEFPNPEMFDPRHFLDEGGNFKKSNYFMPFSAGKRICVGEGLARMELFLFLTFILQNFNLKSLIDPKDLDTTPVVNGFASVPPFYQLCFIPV
Sequence of Aurora kinase B (Q96GD4 whole entry): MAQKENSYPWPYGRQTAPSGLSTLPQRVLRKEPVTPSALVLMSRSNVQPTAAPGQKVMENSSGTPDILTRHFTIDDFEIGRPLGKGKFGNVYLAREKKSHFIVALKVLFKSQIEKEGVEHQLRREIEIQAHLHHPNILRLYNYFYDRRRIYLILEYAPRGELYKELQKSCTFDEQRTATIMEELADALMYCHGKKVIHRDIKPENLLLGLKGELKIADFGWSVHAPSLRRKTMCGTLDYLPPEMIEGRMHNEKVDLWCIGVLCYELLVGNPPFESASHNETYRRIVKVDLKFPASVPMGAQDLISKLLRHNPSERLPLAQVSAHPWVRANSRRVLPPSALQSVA

O=C(N=Nc1c(O)[nH]c2ccccc12)c1cccc(S(=O)(=O)Nc2ccccc2Cl)c1
IC50 (CHO-K1): > 66.2 µM (inactive)
IC50 (Orexin receptor type 2 [1]): > 88.8 µM (inactive)
IC50 [2]: > 49.8 µM (inactive)
IC50 (Orexin receptor type 2 [3]): > 50 µM (inactive)
IC50 [4]: > 49.8 µM (inactive)
IC50 [5]: 1.01 µM (active)

Cc1ccccc1CN1C[C@@H]2C[C@@H](c3ccc4nsnc4c3)N3CCC[C@@]23C1=O
IC50 [6]: 34.1 µM (inactive)

CC(Nc1cncc(-n2cnc3ccccc32)n1)c1ccc(F)cc1 (stereo not given)
Ki (Aurora kinase B): 0.0794 µM (active)
Ki (Aurora kinase A): 1.26 µM (active)

COc1ccc2c(c1)C=C(C(=O)NCc1ccc(Cl)cc1)CO2
AC50 [7]: 69.4 µM (active)

COc1ccc(CN2CC[C@H]3C=CC[C@@H](C(=O)Nc4ccc(Cl)c(C(F)(F)F)c4)[C@H]3C2=O)cc1OC
IC50 (CHO-K1): > 66.2 µM (inactive)
IC50 (cells): 23.6 µM (active)
IC50 (Orexin receptor type 2 [1]): > 88.8 µM (inactive)
IC50 [2]: 3.22 µM (active)
CC50 [8]: 42.4 µM (active)
IC50 (Orexin receptor type 2 [3]): > 50 µM (inactive)
IC50 [4]: > 49.8 µM (inactive)
IC50 [5]: 0.071 µM (active)

CCOC(=O)N1CCC(NC(=O)CCc2nc(C3=CCN(C)CC3)no2)CC1
IC50 [6]: 5.11 µM (active)
AC50 (Cytochrome P450 3A4): 25.1 µM (inconclusive)
EC50 [9]: > 112 µM (not active)
EC50 [10]: > 112 µM (not active)
AC50 (Cytochrome P450 1A2): 1 µM (inconclusive)
AC50 (Cytochrome P450 2C19): 11.2 µM (inconclusive)

COC(=O)c1cccc(N2C(=O)C(Cl)=C(N3CCOCC3)C2=O)c1
EC50 (Protein RecA): 1.93 µM (active)
IC50 (Genome polyprotein): 23.6 µM (active)
AC50 [11]: 4.2 µM (active)

N=C(NOC(=O)c1ccc2ccccc2c1)c1ccccc1Cl
EC50 [12]: 1.8 µM (active)
AC50 [7]: 2.34 µM (active)
EC50 [13]: 8.76 µM (active)

CC(C)(O)c1cc2ccc(C#Cc3ccsc3)cc2c(=O)o1
IC50 (CHO-K1): > 66.2 µM (inactive)
IC50 (Orexin receptor type 2 [1]): > 88.8 µM (inactive)
IC50 [2]: 9.4 µM (active)
IC50 (Orexin receptor type 2 [3]): > 50 µM (inactive)
IC50 [4]: > 49.7 µM (inactive)
IC50 [5]: 4.32 µM (active)

CC1=NN(Cc2ccccc2)C(=O)C1C(c1ccccc1)C(C#N)C#N (stereo not given)
AC50 [14]: 5.37 µM (active)
EC50 (Protein RecA): 2.22 µM (active)
IC50 (Genome polyprotein): 55.4 µM (active)
AC50 [11]: 3.54 µM (active)
